Results reported in patent US5874436A, “Triphenylalkyl antimicrobial agents” (priority 1997, dated 1999).
Converted amounts (≈) assume the structure as drawn. Each block holds one molecule with its values, some of them ahead of it.

Legend:
[1] = system: selected microorganisms; assay: MIC antimicrobial assay (NCCLS microdilution broth method); type: cell-based
Protocol: 2. MIC Anitimicrobial Assay
The in vitro antimicrobial activity of the compounds was determined by the microdilution broth method following the test method from the National Committee for Laboratory Standards (NCCLS). This method is described in the NCCLS Document M7-A2, Vol.10, No.8 "Methods for Dilution Antimicrobial Susceptibility Test for Bacteria that Grow Aerobically--Second Edition."
In this method two-fold serial dilutions of drug in cation supplemented Mueller-Hinton broth are added to wells in microdilution trays. The test organisms are prepared by adjusting the turbidity of actively growing broth cultures so that the final concentration of test organism after it is added to the wells is approximately 5×10^4 CFUs/well).
Following inoculation of the microdilution trays, the trays are incubated at 35° C. for 16-20 hours and then read. […] The amount of growth in the wells containing the test compound is compared with the amount of growth in the growth-control wells (no test compound) used in each tray.

[2] = molecular target: T1, Kinase A and Spo0F (Bacillus subtilis, UniProt P16497); assay: Autophosphorylation of Kinase A and transphosphorylation of Spo0F assay (HPK in vitro assay); type: biochemical; conditions: inhibitor concentrations from 1 to 500 μM, [32P]ATP, phosphoimager
T1 construct: made in house; host or cells: E. coli (recombinant, overexpressing)
T1 sequence (P16497 1-606): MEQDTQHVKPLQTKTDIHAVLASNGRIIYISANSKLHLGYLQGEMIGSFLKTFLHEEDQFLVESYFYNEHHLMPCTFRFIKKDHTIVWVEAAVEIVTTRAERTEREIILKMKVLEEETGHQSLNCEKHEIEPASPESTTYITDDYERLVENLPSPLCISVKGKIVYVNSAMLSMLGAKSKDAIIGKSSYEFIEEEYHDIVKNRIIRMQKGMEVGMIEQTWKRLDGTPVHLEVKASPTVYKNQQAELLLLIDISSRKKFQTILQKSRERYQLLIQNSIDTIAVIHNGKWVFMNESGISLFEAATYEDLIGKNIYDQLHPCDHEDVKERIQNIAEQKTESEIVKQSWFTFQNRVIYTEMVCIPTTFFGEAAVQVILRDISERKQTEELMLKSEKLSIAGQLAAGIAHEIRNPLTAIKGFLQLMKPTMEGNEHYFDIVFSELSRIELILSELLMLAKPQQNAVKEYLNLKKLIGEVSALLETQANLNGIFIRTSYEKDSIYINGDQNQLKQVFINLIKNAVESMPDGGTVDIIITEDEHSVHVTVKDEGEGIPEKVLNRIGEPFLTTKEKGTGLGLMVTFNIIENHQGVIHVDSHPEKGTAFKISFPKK
Protocol: 1. Autophosphorylation of Kinase A and Transphosphorylation of Spo0F Assay
To study the effect of the compounds of the present invention on the signal transduction process in bacteria, the inhibiting effect of the compounds on the sporulation operon proteins Kinase A and Spo0F was examined. Specifically, the inhibition of autophosphorylation of Kinase A and the transphosphorylation of Spo0F was determined in the following assays. The Spo0F response regulator is the primary substrate for phosphorylation by the protein kinase, Kin A, involved in the sporulation process in bacteria. See D. Burbulys, K. A. Trach, J. A. Hoch, Cell, 64, 545-552 (1991). Spo0F and KinA were prepared from recombinant E. coli overexpressing the proteins (J. Cavanagh et al, Amino Acids, 6, 131-140 (1994) and references therein).
The following stock reagents were either prepared and used promptly or stored at the indicated temperature:
8 X Salts : 2M KCl (5 mL), 1M MgCl2 (800 mL), 1M CaCl2 (100 mL), 10 mg/mL phenylmethylsulfonyl fluoride (200 mL), 1 M dithioreitol (50 mL), 0.25M Na2 EDTA (32 mL) and H2 O mL (-20° C.)
5×Loading Dye: 0.5M TRIS-HCl-pH 6.8 (7.5 mL), 10% SDS (2 mL) 0.1% bromophenol blue (0.5 mL), 100% glycerol (3 mL) and 12.5 M 2-mercaptoethanol (0.3 mL)
1-1.3 mg/mL KinA:15 mM TRIS-HCl, pH 8.0, 6 mM KCl; 4 mM 2-mercaptoethanol; 40% glycerol (-20° C.)
1 mg/mL Spo0F: 17.5 mM TRIS-HCl, pH 8.0; 0.7 mM KCl; 0.7 mM MgCl2; 0.7 mM CaCl2; 5mM 2-mercaptoethanol; 30% Glycerol (-20° C.)
5% Stacking Gel: 40% 29:1 acrylamide:bis acrylamide (1.25 mL), 0.5M TRIS-HCl, pH 6.8 (2.5 mL), 10% SDS (0.1 mL), D-H2 O (6.15 mL) 10% ammonium persulfate (100 mL) and TEMED (25 mL) SDS Running Buffer: TRIS-BASE (3.02 g), glycine (14.4 g) SDS (1 g), D-H2 O (to 1L)
The reaction mixture was prepared from 8×Salts (87 μL), 1M TRIS, pH 8 (118 μL), 50% glycerol (63 μL), Spo0F (14.1 μL) and KinA (7.0 μL). Microcentrifuge tubes were charged with the reaction mixture (18.5 μL) and a 1.0 mM solution of the test compound in 5% DMSO (18.5 μL), and incubated for 15 min on ice. 100 mM ATP solution (3.0 μl, containing 625 μCi [^32 P]ATP) was added, and the mixture left for 10 minutes at room temperature. The reaction was quenched with 5×loading dye (10 μL per tube) and the samples were loaded on a prepared 5% Stacking Gel, or stored on dry ice until ready for use. The prepared wells were filled with SDS Running Buffer, samples were loaded into the wells, and 80 volts were applied to the gel until the dye front reached the bottom of the stacking gel. The voltage was then increased to 250 volts until electrophoresis was complete. Radioactive bands in the gel corresponding to phosphorylated KinA and Spo0F were imaged and quantitated with a phosphoimager.
If either enzyme was inhibited (as evidenced by the absence of labelled protein in the developed gel), an IC50 was calculated by running the assay with a range of inhibitor concentrations from 1 to 500 μM. After electrophoresis of the reaction mixtures, percent inhibition was determined by measuring the concentration of radioactive phosphorus with a phosphoimager and calculating the values using a software program (BioRad Molecular Analyst).

- IC50 [2]: 20 µM
Structure (SMILES): O=C(O)COc1ccccc1OCCC(c1ccccc1)(c1ccccc1)c1ccccc1 [Example 45, 2-(3,3,3-triphenylpropoxy)phenoxyacetic acid]

- IC50 [2]: 290 µM
Structure (SMILES): O=C(O)c1ccc(OCCC(c2ccccc2)(c2ccccc2)c2ccccc2)cc1 [Example 21, 4-(3,3,3-Triphenylpropoxy)benzoic acid]

- IC50 [2]: 71 µM
Structure (SMILES): O=C(O)COc1cccc(OCCC(c2ccccc2)(c2ccccc2)c2ccccc2)c1 [Example 44, 3-(3,3,3-triphenylpropoxy)phenoxyacetic acid]

- IC50 [2]: 13 µM
Structure (SMILES): NCCCc1ccc(SCCC(c2ccccc2)(c2ccccc2)c2ccccc2)cc1 [Example 40, 3-[4-(3,3,3-Triphenylpropylthio)phenyl]propylamine]

- IC50 [2]: 40 µM
Structure (SMILES): O=C(O)/C=C/c1cccc(OCCC(c2ccccc2)(c2ccccc2)c2ccccc2)c1 [Example 43, trans 3-(3,3,3-Triphenylpropoxy)cinnamic acid]

- IC50 [2]: 27 µM
Structure (SMILES): O=C(O)CCc1ccccc1OCCC(c1ccccc1)(c1ccccc1)c1ccccc1 [Example 38, 3-[2-(3,3,3-Triphenylpropoxy)phenyl]propionic acid]

- IC50 [2]: 80 µM
Structure (SMILES): NCCc1cccc(OCCC(c2ccccc2)(c2ccccc2)c2ccccc2)c1 [Example 7, 2-(3-(3,3,3-triphenylpropoxy)phenyl)ethylamine]

- IC50 [2]: 260 µM
Structure (SMILES): c1ccc(C(CCOc2ccc(CCC3=NCCO3)cc2)(c2ccccc2)c2ccccc2)cc1 [Example 19, 4.5-Dihydro-2-{2-[4-(3,3,3-triphenylpropoxy)-phenyl]ethyl} oxazole]

- IC50 [2]: 110 µM
Structure (SMILES): c1ccc(C(CCOc2ccc(-c3nnn[nH]3)cc2)(c2ccccc2)c2ccccc2)cc1 [Example 39, 5-[4-(3,3,3-Triphenylpropoxy)phenyl]-1H-tetrazole]

- IC50 [2]: 16 µM
Structure (SMILES): O=C(O)CCCOc1cccc(OCCC(c2ccccc2)(c2ccccc2)c2ccccc2)c1 [Example 46, 4-[3-(3,3,3-triphenylpropoxy)phenoxy]butyric acid]

- IC50 [2]: 21 µM
Structure (SMILES): N=C(N)NCCc1ccc(OCCCC(c2ccccc2)(c2ccccc2)c2ccccc2)cc1 [Example 11]

- IC50 [2]: 85 µM
Structure (SMILES): O=C(O)c1c(O)cccc1OCCC(c1ccccc1)(c1ccccc1)c1ccccc1 [Example 42, 2-Hydroxy-6-(3,3,3-triphenylpropoxy)benzoic acid]

- IC50 [2]: 18 µM
Structure (SMILES): O=C1NC(=O)C(c2ccc(OCCC(c3ccccc3)(c3ccccc3)c3ccccc3)cc2)S1 (stereo not shown) [Example 41, 5-[4-(3,3,3-Triphenylpropoxy)phenyl]thiazolidine-2,4-dione]

- IC50 [2]: 150 µM
Structure (SMILES): NCCc1ccc(OCCC(c2ccc(Cl)cc2)(c2ccc(Cl)cc2)c2ccc(Cl)cc2)cc1 [Example 6]

- IC50 [2]: 73 µM
Structure (SMILES): O=C(O)C(O)c1ccc(OCCC(c2ccccc2)(c2ccccc2)c2ccccc2)cc1 (stereo not shown) [Example 37, 2-[4-(3,3,3-Triphenylpropoxy)phenyl]glycolic acid]

Further lines, the molecule ahead of its results:

Structure (SMILES): O=C(O)Cc1ccccc1OCCC(c1ccccc1)(c1ccccc1)c1ccccc1 [Example 36, 2-(3,3,3-Triphenylpropoxy)phenylacetic acid]
- MIC [1]: 16 to 32 µg/mL (≈ 37.9 to 75.7 µM)
- IC50 [2]: 45 µM

Structure (SMILES): O=C(O)CCCc1ccc(OCCC(c2ccccc2)(c2ccccc2)c2ccccc2)cc1 [Example 15, 4-[4-(3,3,3-Triphenylpropoxy)phenyl]butyric acid]
- MIC [1]: 8 to 64 µg/mL (≈ 17.8 to 142 µM)
- IC50 [2]: 14 µM

Structure (SMILES): NCc1ccc(OCCC(c2ccccc2)(c2ccccc2)c2ccccc2)cc1 [Example 4, 4-(3,3,3-triphenylpropoxy)benzylamine]
- IC50 [2]: 19 µM

Structure (SMILES): Cc1n(C)cc[n+]1Cc1ccc(OCCC(c2ccccc2)(c2ccccc2)c2ccccc2)cc1.[Cl-] [Example 30, 1,2-Dimethyl-3-{[4-(3,3,3-triphenylpropoxy)-phenyl]methyl}imidazolium chloride]
- MIC [1]: 2 to 8 µg/mL
- IC50 [2]: 28 µM

Structure (SMILES): c1ccc(C(CCOc2ccc(CCC3=NCCCO3)cc2)(c2ccccc2)c2ccccc2)cc1 [Example 26, 4,5-Dihydro-2-{2-[4-(3,3,3-triphenylpropoxy)-phenyl}ethyl}-1,3-oxazine]
- MIC [1]: 8 to 16 µg/mL (≈ 16.8 to 33.6 µM)
- IC50 [2]: 43 µM

Structure (SMILES): COc1ccc(CCN)cc1OCCC(c1ccccc1)(c1ccccc1)c1ccccc1 [Example 8, 2-(4-methoxy-3-(3,3,3-triphenylpropoxy)-phenyl)ethylamine]
- MIC [1]: 4 µg/mL (≈ 9.14 µM)
- IC50 [2]: 27 µM

Structure (SMILES): O=C(O)c1ccc2cc(OCCC(c3ccccc3)(c3ccccc3)c3ccccc3)ccc2c1 [Example 17, 6-(3,3,3-Triphenylpropoxy)-2-naphthoic acid]
- MIC [1]: 4 to 64 µg/mL (≈ 8.72 to 140 µM)
- IC50 [2]: 300 µM

Structure (SMILES): O=C(O)CCc1ccc(OCCC(c2ccccc2)(c2ccccc2)c2ccccc2)cc1 [Example 12, 3-[4-(3,3,3-Triphenylpropoxy)phenyl]propionic acid]
- MIC [1]: 2 to 16 µg/mL (≈ 4.58 to 36.7 µM)
- IC50 [2]: 51 µM

Structure (SMILES): C[N+](C)(Cc1ccccc1)Cc1ccc(OCCC(c2ccccc2)(c2ccccc2)c2ccccc2)cc1.[Cl-] [Example 28, N-Benzyl-N,N-dimethyl-[4-(3,3,3-triphenylpropoxy)-phenyl]methyl ammonium chloride]
- MIC [1]: 2 µg/mL
- IC50 [2]: 13 µM

Structure (SMILES): C1=C(c2ccc(OCCC(c3ccccc3)(c3ccccc3)c3ccccc3)cc2)CCNC1 [Example 2, 4-[4-(3,3,3-Triphenylpropyloxy)phenyl]-1,2,3,6-tetrahydropiperidine]
- IC50 [2]: 170 µM

Structure (SMILES): N=C(N)NCCc1ccc(OCCC(c2ccccc2)(c2ccccc2)c2ccccc2)cc1 [Example 5]
- MIC [1]: 1 to 2 µg/mL (≈ 2.22 to 4.45 µM)
- IC50 [2]: 5 µM

Structure (SMILES): O=C(O)Cc1cccc(OCCC(c2ccccc2)(c2ccccc2)c2ccccc2)c1 [Example 34, 2-[3-(3,3,3-Triphenylpropoxy)phenyl]acetic acid]
- MIC [1]: 32 µg/mL (≈ 75.7 µM)
- IC50 [2]: 38 µM

Structure (SMILES): O=C(CCc1ccc(O)cc1)OCCC(c1ccccc1)(c1ccccc1)c1ccccc1 [Example 24, 3,3,3-Triphenylpropyl 3-(4-hydroxyphenyl)propionate]
- MIC [1]: > 128 µg/mL
- IC50 [2]: 160 µM

Structure (SMILES): O=C(CC(c1ccccc1)(c1ccccc1)c1ccccc1)Nc1ccc(N2CCNCC2)cc1 [Example 1, 4-[4-(3,3,3-Triphenylpropanoylamino)phenyl]piperazine]
- IC50 [2]: 200 µM
